Reference: patent US6037357A, “N-benzoyl-α-alkylated azatyrosines as anticancer agents” (Unitech Pharmaceuticals, Inc., priority 1999, dated 2000)
pIC50: −log10 of the molar value. Entries after “also recorded” stand apart in the source; their conditions may differ.

Assays:
[1] = tested on: breast cancer cell (BC-M1); test: Cytotoxic assay by colorimetric MTT assay (growth inhibition), breast cancer; assay type: cell-based, human; conditions: for pIC50: Homo sapiens, 72 h, BC-M1, 10000 cells per well, 3 days incubation, mean of 4 experiments
Description: (§1) The in-vitro studies for evaluating these α-alkylatedderivatives of azatyrosine were performed and the general procedures are listed as follow:
(§2) Human stomach cancer cell line (SC-M1), and human breast cancer cell line (BC-M1) sampled from inpatients at Tri-service General Hospital in Taipei (Taiwan) were cultured and used in the experiments. All cells from primary culture and subculture were grown in 10% RPMI 1640 supplemented with 100 U/mL penicillin G, 100 μg/mL amphotericin B, and 10% fetal calf serum (FCS) in a 5% CO2 incubator at 37° C.
(§3) The cytotoxicity of these compounds against cultured cancer cells was determined by utilizing in-vitro MTT assay. L-azatyrosine and its α-alkylated derivatives were dissolved in milli-Q water at a concentration of 1 mg/mL and diluted with 10% FCS-RPMI to various concentrations, respectively. Single cell suspension (100 μL) and each compounds (100 μL) were added to 96-well flat-bottom microplate. 10% FCS-RPMI (100 μL) was used as a control group. After 3 days incubation at 37° C. in a 5% CO2 incubator, stock MTT (10 μL of 5 mg/mL for each 100 μL solution in well) solution was added to all wells. After additional 2 h incubation in a 5% CO2 incubator, The mixture was centrifuged (1000 rpm for 5 min) and the supernatant was carefully pipetted out. The residue was mixed well with DMSO (100 μL). The optical density of plates was recorded on a MRX Spectrophotometer (Dynatech, Guernsey, UK) at a wavelength of 550 nm.
(§4) Fractional inhibition was calculated as [1-(optical density of sample/optical density of control)]. The IC50 values for each compound were determined as a parameter for cytotoxicity, which is the concentration of a test compound exerting 50% survival of cancer cells, compared to untreated controls. Each value is the mean of four experiments. A specific example of the in-vitro study is shown Example 8.
(§5) A series of α-alkylated derivatives of L-azatyrosine were studied for their in-vitro effects according to the above procedures. The growth inhibition of L-azatyrosine and its derivatives on human cancer cell lines (BC-M1 and SC-M1) has been shown on Table 1.

[2] = tested on: stomach cancer cell (SC-M1); test: Cytotoxic assay by colorimetric MTT assay (growth inhibition), stomach cancer; assay type: cell-based, human; conditions: for pIC50: Homo sapiens, 72 h, SC-M1, 10000 cells per well, 3 days incubation, mean of 4 experiments
Description: as §1, §2, §3, §4, §5

PC-3 = conditions: incubation for 7 days; cited from earlier work
TSU-Prl = conditions: incubation for 7 days; cited from earlier work
[3] = tested on: cells possessing normal ras gene; conditions: cited from earlier work
anticancer activity = conditions: cited from earlier work
[4] = tested on: prostate tumorigenic growth; conditions: cited from earlier work
[5] = tested on: pappilomas induced by a chemical carcinogen; conditions: 2 mg/mouse once every two days for 12 days; cited from earlier work
[6] = tested on: human prostate cancer cells; conditions: cited from earlier work
[7] = tested on: activated c-Ha-ras-transformed NIH3T3 cells; conditions: cited from earlier work
DU-145 = conditions: incubation for 7 days; cited from earlier work
[8] = tested on: 7,12-dimethylbenz[a]anthracene or methylnitrosourea-induced carcinogenesis in mice; conditions: mice harboring a normal c-Ha-ras gene; cited from earlier work

SMILES | pIC50 [1] | pIC50 [2] | other results
CC(C)CC(Cc1ccc(O)cn1)(NC(=O)c1ccccc1)C(=O)N[C@@H](C)c1ccccc1 (mixture of isomers) [Compound 10b, N-Benzoyl-α-isobutyl-DL-azatyrosyl-(S)-1-phenylethylamide] | 3.52 | 3.52 | cytotoxicity / growth inhibition compared with L-azatyrosine (in words), BC-M1 [1]: higher growth inhibition than that of L-azatyrosine; cytotoxicity / growth inhibition compared with L-azatyrosine (in words), SC-M1 [2]: higher growth inhibition than that of L-azatyrosine
C[C@H](NC(=O)C(Cc1ccccc1)(Cc1ccc(O)cn1)NC(=O)c1ccccc1)c1ccccc1 (mixture of isomers) [Compound 10c, N-Benzoyl-α-benzyl-DL-azatyrosyl-(S)-1-phenylethylamide] | 3.22 | 4.10 | cytotoxicity / growth inhibition compared with L-azatyrosine (in words), BC-M1 [1]: higher growth inhibition than that of L-azatyrosine; cytotoxicity / growth inhibition compared with L-azatyrosine (in words), SC-M1 [2]: higher growth inhibition than that of L-azatyrosine; also recorded: excellent cytotoxicity on SC-M1 compared with L-azatyrosine
CC(Cc1ccc(O)cn1)(NC(=O)c1ccccc1)C(=O)O (racemic) [Compound 8a, N-Benzoyl-α-methyl-DL-azatyrosine] | 2.89 | 3.10 | –
CC(C)CC(Cc1ccc(O)cn1)(NC(=O)c1ccccc1)C(=O)O (racemic) [Compound 8b, N-Benzoyl-α-isobutyl-DL-azatyrosine] | 3.00 | 2.92 | –
O=C(NC(Cc1ccccc1)(Cc1ccc(O)cn1)C(=O)O)c1ccccc1 (racemic) [Compound 8c, N-benzoyl-α-benzyl-DL-azatyrosine] | 3.22 | 3.22 | –
CCOC(=O)C(Cc1ccc(O)cn1)(CC(C)C)NC(=O)c1ccccc1 (racemic) [Compound 9b, Ethyl N-benzoyl-α-isobutyl-DL-azatyrosinate] | 3.15 | 3.22 | –
CCOC(=O)C(Cc1ccccc1)(Cc1ccc(O)cn1)NC(=O)c1ccccc1 (racemic) [Compound 9c, Ethyl N-benzoyl-α-benzyl-DL-azatyrosinate] | 3.05 | 3.00 | –
N[C@@H](Cc1ccc(O)cn1)C(=O)O [L-Azatyrosine, L-azatyrosine] | 2.66 | 2.80 | in-vitro growth inhibition, PC-3 (PC-3): greater than 95%; in-vitro growth inhibition, TSU-Prl (TSU-Prl): greater than 95%; effect on the growth of cells possessing normal ras gene [3]: without significantly affecting the growth; concentrations required for the anticancer activity (anticancer activity): 1 to 2 mM; inhibition of prostate tumorigenic growth [4]: inhibit prostate tumorigenic growth; block of pappilomas induced by a chemical carcinogen [5]: can block pappilomas; reversion efficiency on human prostate cancer cells [6]: high reversion efficiency; reversion of activated c-Ha-ras-transformed NIH3T3 cells to the apparently normal phenotype [7]: induces permanent reversion; in-vitro growth inhibition, DU-145 (DU-145): greater than 95%; inhibition of 7,12-dimethylbenz[a]anthracene or methylnitrosourea-induced carcinogenesis [8]: inhibits
